Test results published in ChEMBL document CHEMBL4257501, “Discovery of novel picolinamide-based derivatives as novel VEGFR-2 kinase inhibitors: synthesis, in vitro biological evaluation and molecular docking” (Medchemcomm, 2018).
pIC50: −log10 of the molar value.

How the values were obtained:
[1] = tested on: A549; assay: Antiproliferative activity against VEGF-stimulated human A549 cells after 48 hrs by CCK8 assay; assay type: functional, cell-based; settings: A549, 48 h
[2] = tested on: HepG2; assay: Antiproliferative activity against VEGF-stimulated human HepG2 cells after 48 hrs by CCK8 assay; assay type: functional, cell-based; settings: HepG2, 48 h
[3] = Selectivity ratio of IC50 for VEGF-stimulated human HepG2 cells to IC50 for VEGF-stimulated human A549 cells; assay type: functional
[4] = target: Vascular endothelial growth factor receptor 2 (Homo sapiens, UniProt P35968); assay: biochemical; assay type: cell-based, Sf9
Vascular endothelial growth factor receptor 2, sequence (P35968 whole entry): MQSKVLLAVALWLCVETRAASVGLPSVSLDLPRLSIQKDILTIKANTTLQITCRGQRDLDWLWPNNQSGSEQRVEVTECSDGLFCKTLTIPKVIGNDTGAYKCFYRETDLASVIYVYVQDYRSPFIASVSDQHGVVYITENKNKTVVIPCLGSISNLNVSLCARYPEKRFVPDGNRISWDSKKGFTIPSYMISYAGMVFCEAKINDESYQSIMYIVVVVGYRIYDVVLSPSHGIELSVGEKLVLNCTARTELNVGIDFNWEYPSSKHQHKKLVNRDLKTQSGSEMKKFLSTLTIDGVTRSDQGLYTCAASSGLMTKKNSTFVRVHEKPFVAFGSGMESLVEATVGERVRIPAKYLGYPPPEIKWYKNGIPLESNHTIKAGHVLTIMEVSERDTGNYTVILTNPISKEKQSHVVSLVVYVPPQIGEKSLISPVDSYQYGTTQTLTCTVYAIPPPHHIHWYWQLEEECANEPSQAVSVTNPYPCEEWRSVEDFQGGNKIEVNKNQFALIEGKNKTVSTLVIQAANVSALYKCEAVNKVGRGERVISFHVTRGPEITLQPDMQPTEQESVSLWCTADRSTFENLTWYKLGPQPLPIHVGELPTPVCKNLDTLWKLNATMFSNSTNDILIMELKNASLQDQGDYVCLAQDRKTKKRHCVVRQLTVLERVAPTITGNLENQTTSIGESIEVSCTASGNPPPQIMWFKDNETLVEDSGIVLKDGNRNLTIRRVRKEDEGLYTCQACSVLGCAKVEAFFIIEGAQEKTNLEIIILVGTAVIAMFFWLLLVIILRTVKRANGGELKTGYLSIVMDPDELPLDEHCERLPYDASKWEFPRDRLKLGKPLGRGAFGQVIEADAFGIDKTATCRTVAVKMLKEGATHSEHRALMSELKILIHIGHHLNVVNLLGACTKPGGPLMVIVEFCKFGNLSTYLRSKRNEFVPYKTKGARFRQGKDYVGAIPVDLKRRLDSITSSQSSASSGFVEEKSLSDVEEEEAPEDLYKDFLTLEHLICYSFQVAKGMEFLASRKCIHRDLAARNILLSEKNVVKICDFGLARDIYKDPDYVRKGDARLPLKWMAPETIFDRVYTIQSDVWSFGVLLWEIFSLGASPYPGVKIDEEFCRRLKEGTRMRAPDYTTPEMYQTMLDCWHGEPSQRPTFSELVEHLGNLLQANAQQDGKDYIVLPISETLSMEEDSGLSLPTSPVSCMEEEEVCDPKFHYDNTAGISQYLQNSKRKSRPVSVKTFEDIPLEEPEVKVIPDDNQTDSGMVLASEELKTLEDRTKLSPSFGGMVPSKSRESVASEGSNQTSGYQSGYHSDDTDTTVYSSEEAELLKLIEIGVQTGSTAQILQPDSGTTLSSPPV
Description: Inhibition of recombinant human N-terminal GST-tagged VEGFR2 (789 to end residues) expressed in baculovirus infected Sf9 insect cells using Poly (4:1 Glu,Tyr) as substrate measured after 1 hr by ADP-Glo kinase assay

O=C(c1cc(Oc2ccc(/C=C/c3ccncc3)cc2)ccn1)N1CCCC1
pIC50 [1]: 4.73
pIC50 [2]: 4.38
Ratio IC50 [3]: 2.2

CC(C)NC(=O)c1cc(Oc2ccc(/C=C/c3ccncc3)cc2)ccn1
pIC50 [1]: 4.69
pIC50 [2]: 4.47
Ratio IC50 [3]: 1.6

O=C(NCc1ccccc1)c1cc(Oc2ccc(/C=C/c3ccccn3)cc2)ccn1
pIC50 [1]: 4.73
pIC50 [2]: 4.55
Ratio IC50 [3]: 1.5

O=C(Nc1ccc(Cl)cc1)c1cc(Oc2ccc(/C=C/c3ccccn3)cc2)ccn1
pIC50 [1]: 4.79
pIC50 [2]: 4.50
Ratio IC50 [3]: 1.9

O=C(Nc1ccccc1)c1cc(Oc2ccc(/C=C/c3ccncc3)cc2)ccn1
pIC50 [1]: 4.10
pIC50 [2]: < 4.00
Ratio IC50 [3]: >1.2

COc1ccc(NC(=O)c2cc(Oc3ccc(/C=C/c4ccncc4)cc3)ccn2)cc1
pIC50 [1]: 4.59
pIC50 [2]: < 4.00
Ratio IC50 [3]: >3.9

O=C(NCc1ccc(F)cc1)c1cc(Oc2ccc(/C=C/c3ccncc3)cc2)ccn1
pIC50 [1]: 4.74
pIC50 [2]: 4.43
Ratio IC50 [3]: 2

O=C(Nc1ccccc1)c1cc(Oc2ccc(/C=C/c3ccccn3)cc2)ccn1
pIC50 [1]: 4.72
pIC50 [2]: 4.52
Ratio IC50 [3]: 1.6

COc1ccc(CNC(=O)c2cc(Oc3ccc(/C=C/c4ccncc4)cc3)ccn2)cc1
pIC50 [1]: 4.71
pIC50 [2]: < 4.00
Ratio IC50 [3]: >5.2

O=C(Nc1ccc(Cl)cc1)c1cc(Oc2ccc(/C=C/c3ccncc3)cc2)ccn1
pIC50 [1]: 4.21
pIC50 [2]: 4.25
Ratio IC50 [3]: 0.9

O=C(NC1CCCCC1)c1cc(Oc2ccc(/C=C/c3ccccn3)cc2)ccn1
pIC50 [1]: 4.90
pIC50 [2]: 4.69
Ratio IC50 [3]: 1.6
pIC50 [4]: 6.28

O=C(NC1CC1)c1cc(Oc2ccc(/C=C/c3ccccn3)cc2)ccn1
pIC50 [1]: 4.76
pIC50 [2]: 4.51
Ratio IC50 [3]: 1.8

O=C(c1cc(Oc2ccc(/C=C/c3ccccn3)cc2)ccn1)N1CCCC1
pIC50 [1]: 4.81
pIC50 [2]: 4.57
Ratio IC50 [3]: 1.7

CNC(=O)c1cc(Oc2ccc(NC(=O)Nc3ccc(Cl)c(C(F)(F)F)c3)cc2)ccn1 [SORAFENIB]
pIC50 [1]: 4.71
pIC50 [2]: 4.54

O=C(NC1CC1)c1cc(Oc2ccc(/C=C/c3ccncc3)cc2)ccn1
pIC50 [1]: 4.45
pIC50 [2]: 4.11
Ratio IC50 [3]: 2.2

CC(C)NC(=O)c1cc(Oc2ccc(/C=C/c3ccccn3)cc2)ccn1
pIC50 [1]: 4.67
pIC50 [2]: < 4.00
Ratio IC50 [3]: >4.7

CNC(=O)c1cc(Oc2ccc(/C=C/c3ccncc3)cc2)ccn1
pIC50 [1]: 4.88
pIC50 [2]: 4.74
Ratio IC50 [3]: 1.4
pIC50 [4]: 6.54

COc1ccc(CNC(=O)c2cc(Oc3ccc(/C=C/c4ccccn4)cc3)ccn2)cc1
pIC50 [1]: 4.20
pIC50 [2]: 4.59
Ratio IC50 [3]: 0.4

O=C(NC1CCCCC1)c1cc(Oc2ccc(/C=C/c3ccncc3)cc2)ccn1
pIC50 [1]: 4.77
pIC50 [2]: 4.65
Ratio IC50 [3]: 1.3
pIC50 [4]: 5.91

COc1ccc(NC(=O)c2cc(Oc3ccc(/C=C/c4ccccn4)cc3)ccn2)cc1
pIC50 [1]: 4.70
pIC50 [2]: 4.52
Ratio IC50 [3]: 1.5

CNC(=O)c1cc(Oc2ccc(/C=C/c3ccccn3)cc2)ccn1
pIC50 [1]: 4.76
pIC50 [2]: 4.67
Ratio IC50 [3]: 1.2
pIC50 [4]: 6.06

O=C(NCc1ccc(F)cc1)c1cc(Oc2ccc(/C=C/c3ccccn3)cc2)ccn1
pIC50 [1]: < 4.00
pIC50 [2]: 4.35
Ratio IC50 [3]: <0.5

O=C(NCc1ccccc1)c1cc(Oc2ccc(/C=C/c3ccncc3)cc2)ccn1
pIC50 [1]: 4.77
pIC50 [2]: 4.54
Ratio IC50 [3]: 1.7
